Some test systems named below: MCF7; HOP-62; SNB-19; MDA-N; SK-MEL-5; SF-268; SN12C; ACHN; PC-3; SF-295; TK-10; SW-620; CAKI-1; NCI/ADR-RES; UACC-62; OVCAR-8; DU-145; RPMI-8226; A549; HL-60.
Assay in all cases: NCI anticancer screen, dose series, 48 h

SMILES strings stand for the structures.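 Method: 48-hour compound exposure of cells in 96-well plates, five concentrations, linear interpolation of endpoints. Abbreviation: GI50, concentration required for 50% inhibition of growth.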 Calls of active or inactive are those of the source. No stated cut-off is given here; in the data, active = GI50 up to about 1.1 µM and inactive = higher.

With `COC(=O)[C@H](NC(=O)OC(C)(C)C)[C@H]1COC(C)(C)O1`, the GI50 with MCF7, with HOP-62, with SNB-19, with MDA-N, in the experiment with SK-MEL-5 and in the experiment with SF-268 was > 100 µM (inactive) each time. Moreover, the GI50 in the experiment on SN12C, in the experiment with ACHN, with PC-3, in the experiment with SF-295, with TK-10 and in the experiment with SW-620 was > 100 µM (inactive) in each case. The GI50 in the experiment on CAKI-1, with NCI/ADR-RES, with UACC-62, in the experiment on OVCAR-8, with DU-145 and in the experiment with RPMI-8226 was > 100 µM (inactive) each time. Moreover, the GI50 in the experiment on A549 and in the experiment on HL-60 was > 100 µM (inactive) throughout.

With `CN(Cc1nc2c(N)nc(N)nc2nc1N)c1ccc(C(=O)NC(CCC(=O)O)C(=O)O)cc1` (stereo unspecified), the GI50 in the experiment on MCF7 is 0.0596 µM (active); with HOP-62, 0.231 µM (active); in the experiment on SNB-19 it was 64.6 µM (inactive); in the experiment with MDA-N it was 0.0442 µM (active); with SK-MEL-5, 1.55 µM (inactive); in the experiment on SF-268, 0.299 µM (active). In addition, the GI50 was 0.365 µM (active) with SN12C; 0.041 µM (active) in the experiment on ACHN; < 0.01 µM (active) with PC-3; 0.162 µM (active) in the experiment with SF-295; 0.752 µM (active) in the experiment with TK-10; 0.033 µM (active) in the experiment on SW-620. Also, the GI50 with CAKI-1 was 0.0322 µM (active); in the experiment on NCI/ADR-RES, 0.225 µM (active); with UACC-62, 0.0603 µM (active); in the experiment on OVCAR-8, 0.0413 µM (active); with DU-145 it was 0.254 µM (active); with RPMI-8226 it was > 75.2 µM (inactive). For the same molecule, in the experiment on HL-60, the GI50 is < 0.01 µM (active).

Regarding `COc1c(Cl)ccc(Cl)c1-c1nnc(-c2c(Cl)c(Cl)c(Cl)c(Cl)c2-c2nc3cc(C(=O)c4ccccc4)ccc3[nH]2)o1`, the GI50 in the experiment with MCF7 was 31.6 µM (inactive); in the experiment with HOP-62 it was 43.5 µM (inactive); with SNB-19 it was 62.2 µM (inactive); in the experiment on MDA-N, 20 µM (inactive); in the experiment on SK-MEL-5, 16.6 µM (inactive); in the experiment on SF-268, 57.1 µM (inactive). The GI50 with SN12C was 64.7 µM (inactive); in the experiment with ACHN it was > 100 µM (inactive); with PC-3, 46 µM (inactive); in the experiment on SF-295, 29.4 µM (inactive); in the experiment on TK-10 it was > 100 µM (inactive); with SW-620, 44.1 µM (inactive). Moreover, the GI50 in the experiment with CAKI-1 is > 100 µM (inactive); in the experiment with NCI/ADR-RES, 28.3 µM (inactive); in the experiment on OVCAR-8, > 100 µM (inactive); in the experiment with DU-145 it was > 100 µM (inactive); in the experiment on RPMI-8226, 23.8 µM (inactive); in the experiment on A549 it was 45.2 µM (inactive). In addition, the GI50 with HL-60 is 34.5 µM (inactive).

For `COC12c3ccccc3-c3ccccc3C1[C@H]1C(=O)OC(=O)[C@H]12` (stereo partly specified), the GI50 with MCF7, in the experiment with HOP-62, with SNB-19, with MDA-N, in the experiment with SK-MEL-5 and in the experiment with SF-268 was > 10 µM (inactive) each time. For the same molecule, the GI50 in the experiment with SN12C, in the experiment on ACHN, in the experiment on PC-3, in the experiment on SF-295, in the experiment with TK-10 and in the experiment with SW-620 was > 10 µM (inactive) in each case. The GI50 in the experiment with CAKI-1, with NCI/ADR-RES, in the experiment on OVCAR-8, with DU-145, with RPMI-8226 and in the experiment on HL-60 was > 10 µM (inactive) each time.

For the origin of these results see ChEMBL document CHEMBL1201862, “PubChem BioAssay data set” (2004).
